{
  "source": "patent US6512002B2",
  "about": "“Methods of treatment for premature ejaculation in a male” (Pfizer Inc., priority 2000, dated 2003)",
  "key": {"[1]": {"system": "total serum testosterone", "experiment": "Testosterone elevation: total serum testosterone in a random, double-blind, parallel group, placebo-controlled study", "type": "in vivo, men", "protocol": "In a random, double-blind, parallel group, placebo-controlled study, 3-{1-[4-(2-dimethylamino-ethoxy)-phenyl]-2-phenyl-but-enyl}-phenol was administered to men, aged 72 to 84 with below average serum testosterone levels. Subjects received either placebo or 3-{1-[4-(2-dimethylamino-ethoxy)-phenyl]-2-phenyl-but-enyl}-phenol as a sequential escalating dose, with subjects receiving 20 mg daily for the first month, 40 mg daily for the second month, and 60 mg daily for the final four months (remainder) of the study. Total serum testosterone was determined in the subjects at 4 weeks and at 2, 3 and 6 months."}},
  "data": [
    {"smiles": "CCCOc1ncc(C(C)=O)cc1-c1nc2c(CC)n(C3CN(C(C)C)C3)nc2c(=O)[nH]1", "values": [
      {"measurement": "melting point", "value": "162.8 to 163.6", "unit": "°C"}
    ]},
    {"smiles": "CCC(=C(c1ccc(OCCN(C)C)cc1)c1cccc(O)c1)c1ccccc1", "note": "[Treatment Compound, 3-{1-[4-(2-dimethylamino-ethoxy)-phenyl]-2-phenyl-but-enyl}-phenol]", "values": [
      {"measurement": "Mean Percent Change From Baseline in Testosterone", "setting": "[1]; 2 Months, men aged 72 to 84, escalating dose, 40 mg daily for the second month", "value": 44.45, "unit": "%"},
      {"measurement": "Mean Percent Change From Baseline in Testosterone", "setting": "[1]; 3 Months, men aged 72 to 84, escalating dose, 60 mg daily for the final four months", "value": 41.47, "unit": "%"},
      {"measurement": "Mean Percent Change From Baseline in Testosterone", "setting": "[1]; 6 Months, men aged 72 to 84, escalating dose, 60 mg daily for the final four months", "value": 45.19, "unit": "%"},
      {"measurement": "Mean Percent Change From Baseline in Testosterone", "setting": "[1]; Week 4, men aged 72 to 84 with below average serum testosterone, 20 mg daily for the first month", "value": 36.20, "unit": "%"},
      {"measurement": "total serum testosterone versus subjects receiving placebo during the study", "setting": "[1]; men aged 72 to 84, 20/40/60 mg daily escalating dose over 6 months, p=0.026", "value": "significant increase"}
    ]}
  ]
}
